Measured values published in ChEMBL document CHEMBL1201862, “PubChem BioAssay data set” (2004).
Where “and” joins values, the source holds several entries; their conditions need not be identical. Identical values can stand only once.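 Results reflect a 48-hour exposure of cells in 96-well plates to compound at five concentrations. GI50 marks 50% less growth.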 Calls of active or inactive are those of the source. Rule as the data show it: active = GI50 up to about 1.1 µM and inactive = higher.

Experiments:
Test in all cases: DTP human tumour cell line panel, 48 h
[1] = test system: SK-MEL-5
[2] = test system: CAKI-1
[3] = test system: SK-MEL-2
[4] = test system: 786-0
[5] = test system: SF-539
[6] = test system: K562
[7] = test system: RPMI-8226
[8] = test system: SR
[9] = test system: HT-29
[10] = test system: A498
[11] = test system: UACC-257
[12] = test system: EKVX
[13] = test system: SNB-19
[14] = test system: NCI-H226
[15] = test system: SK-OV-3
[16] = test system: IGROV-1
[17] = test system: NCI-H460
[18] = test system: ACHN
[19] = test system: HL-60
[20] = test system: SNB-75
[21] = test system: SK-MEL-28
[22] = test system: UACC-62
[23] = test system: OVCAR-5
[24] = test system: OVCAR-3
[25] = test system: PC-3
[26] = test system: HCC 2998
[27] = test system: MDA-N
[28] = test system: OVCAR-4
[29] = test system: Hs-578T
[30] = test system: OVCAR-8
[31] = test system: COLO 205
[32] = test system: M14
[33] = test system: MDA-MB-231
[34] = test system: DU-145
[35] = test system: NCI-H23
[36] = test system: Malme-3M
[37] = test system: MDA-MB-435
[38] = test system: T47D
[39] = test system: KM12
[40] = test system: TK-10
[41] = test system: NCI/ADR-RES
[42] = test system: HCT-116
[43] = test system: HOP-92
[44] = test system: RXF 393
[45] = test system: NCI-H522
[46] = test system: UO-31
[47] = test system: SF-268
[48] = test system: SF-295
[49] = test system: LOX IMVI
[50] = test system: SN12C
[51] = test system: U-251
[52] = test system: HOP-62
[53] = test system: CCRF-CEM
[54] = test system: MOLT-4
[55] = test system: HCT-15
[56] = test system: A549
[57] = test system: BT-549
[58] = test system: MCF7
[59] = test system: SW-620

Measured: GI50

CN(C)C(c1ccccc1)C1COC2Cc3ccccc3C1O2 (configuration not stated)
> 100 µM: [55]
inactive: [1] > 100 µM | [2] > 100 µM | [3] > 100 µM | [4] > 100 µM | [5] > 100 µM | [6] 66.2 µM and 38.7 µM | [7] > 100 µM and 91 µM | [8] > 100 µM | [9] 47.5 µM and 46.6 µM | [10] > 100 µM | [11] > 100 µM | [12] > 100 µM | [13] > 100 µM | [14] 72.9 µM | [15] > 100 µM | [16] > 100 µM | [17] > 100 µM | [18] > 100 µM | [19] 65 µM and 46.8 µM | [20] 24.9 µM and 15.5 µM | [21] > 100 µM | [22] > 100 µM | [23] > 100 µM | [24] 47.1 µM and 64 µM | [25] 99.3 µM and 76.4 µM | [26] > 100 µM | [27] > 100 µM | [28] > 100 µM | [29] 92.3 µM | [30] > 100 µM | [31] > 100 µM | [32] > 100 µM | [33] > 100 µM | [34] > 100 µM | [35] > 100 µM | [36] > 100 µM and 60.7 µM | [37] > 100 µM | [38] > 100 µM | [39] > 100 µM | [40] > 100 µM | [41] > 100 µM | [42] 98.2 µM and 86.9 µM | [43] 58.1 µM | [44] > 100 µM | [45] > 100 µM | [46] > 100 µM | [47] > 100 µM | [48] > 100 µM | [49] 62.2 µM and 64.4 µM | [50] > 100 µM | [51] > 100 µM | [52] > 100 µM | [53] 79.3 µM | [54] > 100 µM and 54 µM | [56] > 100 µM

NC(CO)Cc1c[nH]cn1 (configuration not stated)
inactive: [2] > 100 µM | [11] > 100 µM | [23] > 100 µM | [28] > 10 µM | [32] > 100 µM | [33] > 100 µM | [34] > 100 µM | [43] > 10 µM | [44] > 10 µM | [45] > 100 µM | [57] > 100 µM

Cc1ccc(/C=C2\NC(=S)N(CN3CCOCC3)C2=O)cc1
> 100 µM: [55]
inactive: [1] > 100 µM | [3] > 100 µM | [4] > 100 µM | [6] > 100 µM | [58] 66.5 µM | [7] > 100 µM | [8] > 100 µM | [9] > 100 µM | [10] > 100 µM | [11] > 100 µM | [12] > 100 µM | [13] > 100 µM | [14] > 100 µM | [15] > 100 µM | [16] > 100 µM | [18] > 100 µM | [20] > 100 µM | [21] > 100 µM | [22] > 100 µM | [23] > 100 µM | [24] > 100 µM | [25] > 100 µM | [27] > 100 µM | [28] > 100 µM | [29] > 100 µM | [30] > 100 µM | [31] > 100 µM | [32] > 100 µM | [33] > 100 µM | [34] > 100 µM | [35] > 100 µM | [36] > 100 µM | [37] > 100 µM | [39] > 100 µM | [40] > 100 µM | [41] > 100 µM | [59] > 100 µM | [42] > 100 µM | [43] > 100 µM | [46] > 100 µM | [47] > 100 µM | [48] > 100 µM | [49] > 100 µM | [50] > 100 µM | [51] > 100 µM | [52] > 100 µM | [53] > 100 µM | [54] > 100 µM | [56] > 100 µM
